# Values of other authors, collected in patent publication US20230036624A1, “RETINOL-BASED COMPOSITION” (L'OREAL, priority 2019, published 2023).
# Test system: human epidermal keratinocytes grown in monolayer culture
smiles,measurement,value
CCCCCCCCCCCCCCCC(=O)OC/C=C(C)/C=C/C=C(C)/C=C/C1=C(C)CCCC1(C)C [retinyl palmitate],"effectiveness compared with retinol, measured at the transcriptomic level",less effective than retinol
